Test results: patent publication US12275734B1, “Pleuromutilin onium salt derivative containing a 3H-imidazo[4,5-c]pyridine side chain, and a preparation method and application thereof” (SHAANXI UNIVERSITY OF SCIENCE AND TECHNOLOGY, priority 2024, dated 2025)
In brackets after ≈: the same amount, converted by molar mass.

Legend:
[1] = test system: Staphylococcus aureus (MRSA, ATCC 33591); test: Mouse MRSA systemic infection model, H&E tissue sections; type: in vivo; settings: MRSA-infected mice
Protocol: Establishment of a mouse model of MRSA systemic infection
(2) Pretreatment: All mice received cyclophosphamide treatment, with the first intraperitoneal injection of 150 mg/kg cyclophosphamide 4 days before infection and the second intraperitoneal injection of 100 mg/kg cyclophosphamide 1 day before infection.
(4) Infection process: Mice were anesthetized with isoflurane and infected by intraperitoneal injection of Staphylococcus aureus (MRSA, ATCC 33591) at a concentration of 10^7 CFU/mL. […]
(2) Processing: • (a) Time point: At the first hour after infection, mice in the experimental group received intraperitoneal injection of 0.5 mL of compounds of different concentrations, while mice in the control group received the same volume of solvent. • (b) Treatment time: […]
Part II: The samples were fixed with 10% formalin buffer, then embedded in paraffin and sectioned. The sections were stained with hematoxylin and eosin (H&E) and then examined under an optical microscope.

MRSA (ATCC 33591) = test: Bacterial cell morphology by FESEM; type: cell-based, S. aureus; settings: 4 hours
Protocol: Observation of bacterial cell morphology using FESEM:
First, the bacterial suspension was adjusted to OD600=0.5, and then the bacteria were treated with compound i at a final concentration of 1×MIC and 4×MIC at 37° C. for 4 hours, and a control group without compound addition was set up. After treatment, the bacteria were collected by high-speed centrifugation at 6000 rpm for 10 minutes and washed three times with 10 mM PBS buffer to remove residual culture medium and drugs. Subsequently, the bacteria were fixed with 2.5% glutaraldehyde at 4° C. for 12 hours to maintain the integrity of the cell structure, and then washed again with PBS buffer three times to remove excess glutaraldehyde.
Next, the cells were subjected to a series of ethanol dehydration treatments (30%, 50%, 70%, 80%, 90% and 100% ethanol), and the treatment time of each concentration was sufficient to replace the intracellular water. After dehydration, the sample was resuspended in isoamyl acetate for 30 minutes and then centrifuged at 6000 rpm for 10 minutes to remove the supernatant. The sample was then dried and dotted on a stage with conductive glue, gold-plated to enhance the conductivity of the sample, and finally observed using a field emission scanning electron microscope (FESEM) to obtain high-resolution images of bacterial cell morphology and surface morphology. […]

[2] = test system: C. pneumoniae CWL-029, VR-1310; test: Anti-mycoplasma MIC; type: cell-based; settings: Chlamydia pneumoniae, read-out: Antimycoplasma activity (MIC) CP-CWL-029^h
Protocol: The antimycoplasma activity was quantified using the […]. Retapamulin was used as a positive control to test the minimum inhibitory concentration of 3H-imidazo[4,5-C]pyridine pleuromutilin onium salt derivatives.
(1) Preparation of KM2 medium: Weigh 38.9 g of KM2 medium, add it to 800 mL of distilled water, boil to dissolve, sterilize under high pressure at 115° C. for 20 min, and set aside.
(2) Preparation of bacterial stock solution: Take 0.5 mL of Mhp-J^a, Mhp-LH^b, Mhr-BTS-7^c, MG-R^d, MS-WVU1853^e, MP-M129^f, CP-AR-39^g, CP-CWL-029^h, CP-TW-183^i, MH-PG-21^j, MG-G37^k cultured to the logarithmic phase and transfer it to 4.5 mL of KM2 liquid culture medium. When the culture medium turns yellow, divide each bacterium into 0.5 mL per tube and store it at −70° C. as bacterial stock solution.
(3) Determination of bacterial titer (color change unit, CCU): Take out the bacterial stock solution stored at −70° C., melt and balance to room temperature, add 0.18 mL KM2 medium to each well of the middle 4 rows of the 96-well plate (i.e. 4 parallels), take 0.02 mL and add it to the first column, dilute 10 times to 10^−11, and set up a negative control containing only KM2 medium (12th column). After sealing, put it in a 37° C. incubator and observe the results every day. The highest dilution at which the color of the medium changes is the CCU/mL of the strain.
Take an appropriate amount of seed bacterial solution and dilute it to 10^4 CCU/mL in turn according to its titer. Add drugs of each dilution in a 96-well plate in turn, and then add an equal amount of diluted bacterial solution. Set 200 μL of diluted mycoplasma bacterial solution as a positive control, 200 μL of KM2 liquid culture medium as a negative control, and set a solvent control group (10 μL of drug solvent+190 μL of mycoplasma bacterial solution). Each experiment is set up in 3 parallels. After all culture plates are sealed, they are cultured at 37° C., observed daily, and the final MIC value is recorded.

[3] = 5 mg/kg compound i, intraperitoneal

SMILES	kidney H&E histology [1, 3]	lung H&E histology [1, 3]	spleen H&E histology ([1]; 5 mg/kg, after 7 days of treatment)	bacterial cell morphology (FESEM) (MRSA (ATCC 33591); 1×MIC)	bacterial cell morphology (FESEM) (MRSA (ATCC 33591); 4×MIC)	MIC [2]
C=C[C@]1(C)C[C@@H](OC(=O)CSc2nc3cc[n+](Cc4ccc(C)cc4)cc3[nH]2)[C@]2(C)[C@H](C)CC[C@]3(CCC(=O)[C@H]32)[C@@H](C)[C@@H]1O [Compound i, 5-(4-methylbenzyl)-2-((2-(((3aR,4R,5R,7S,8S,9R,9aS,12R)-8-hydroxy-4,7,9,12-tetramethyl-3-oxo-7-vinyldecahydro-4,9a-propancyclopenta[8]cyclo-5-yl)oxy)-2-oxoethyl)thio)-3H-imidazo[4,5-C]pyridine-5-ium]	returned to a normal state	no obvious pathological changes	immune response was weakened	showed an irregular shape	obvious shrinkage or deformation	–
C=C[C@]1(C)C[C@@H](OC(=O)CS[C@@H]2C[C@H]3CC[C@@H](C2)N3C)[C@]2(C)[C@H](C)CC[C@]3(CCC(=O)[C@H]32)[C@@H](C)[C@@H]1O [Retapamulin, reference compound]	–	–	–	–	–	0.03 µg/mL (≈ 0.0579 µM)
